This note sets out measurements from ChEMBL document CHEMBL1156471, “Targeting host cell furin proprotein convertases as a therapeutic strategy against bacterial toxins and viral pathogens” (J Biol Chem, 2007).

Active and inactive are the calls of the source. No cut-off for these calls is given here. Non-standard residues stand in square brackets, D forms with d. Residues, ends and D or L forms follow the SMILES beside them. βAla = NCCC(=O)O

By Ki is commonly meant a measure of affinity in units of concentration, obtained from inhibition or displacement. High values mean weaker binding, low ones tighter binding.

The subject of data set [1] is Bacillus anthracis. The data set can be described thus: Protection against Bacillus anthracis Sterne spores infected A/J mouse at 12.5 mg/kg, ip administered once daily for 6 days. The following applies: route intraperitoneal. It is filed as functional.
Data set [2] concerns Bacillus anthracis. The data set can be described thus: Protection against Bacillus anthracis Sterne spores infected A/J mouse assessed as survival at 12.5 mg/kg, ip administered once daily for 6 days. The following applies: route intraperitoneal. It is filed as functional.
Data set [3] relates to U-251. The experiment in a line: Protection against anthrax PA63-lethal toxin complex-induced cytotoxicity in human U251 cells at 20 uM at 400 ng/ml by MTT test. It is filed as cell-based. A general note: Tetrazolium dyes change colour on reduction, which living cells bring about.
Another data set relates to RAW264.7. The data set can be described thus: Cytotoxicity against mouse RAW264.7 cells =< 0.5 mM after 4 hrs by MTT assay. It is filed as cell-based. The following applies: raw264.7, 4 h.
For data set [4], the system named is U-251. The data set can be described thus: Inhibition of proprotein convertase-dependent delivery of PA63-lethal toxin complex into cytosol in human U251 cells at 20 uM. It is filed as cell-based. The following applies: Bacillus anthracis.
Another data set deals with Furin (Homo sapiens, UniProt P09958). The data set can be described thus: Inhibition of furin-mediated Pseudomonas exotoxin A proteolysis by peptide cleavage reaction.
Data set [5] deals with T1, Proprotein convertase subtilisin/kexin type 4 (Homo sapiens, UniProt Q6UW60).
T1 sequence (Q6UW60 whole entry): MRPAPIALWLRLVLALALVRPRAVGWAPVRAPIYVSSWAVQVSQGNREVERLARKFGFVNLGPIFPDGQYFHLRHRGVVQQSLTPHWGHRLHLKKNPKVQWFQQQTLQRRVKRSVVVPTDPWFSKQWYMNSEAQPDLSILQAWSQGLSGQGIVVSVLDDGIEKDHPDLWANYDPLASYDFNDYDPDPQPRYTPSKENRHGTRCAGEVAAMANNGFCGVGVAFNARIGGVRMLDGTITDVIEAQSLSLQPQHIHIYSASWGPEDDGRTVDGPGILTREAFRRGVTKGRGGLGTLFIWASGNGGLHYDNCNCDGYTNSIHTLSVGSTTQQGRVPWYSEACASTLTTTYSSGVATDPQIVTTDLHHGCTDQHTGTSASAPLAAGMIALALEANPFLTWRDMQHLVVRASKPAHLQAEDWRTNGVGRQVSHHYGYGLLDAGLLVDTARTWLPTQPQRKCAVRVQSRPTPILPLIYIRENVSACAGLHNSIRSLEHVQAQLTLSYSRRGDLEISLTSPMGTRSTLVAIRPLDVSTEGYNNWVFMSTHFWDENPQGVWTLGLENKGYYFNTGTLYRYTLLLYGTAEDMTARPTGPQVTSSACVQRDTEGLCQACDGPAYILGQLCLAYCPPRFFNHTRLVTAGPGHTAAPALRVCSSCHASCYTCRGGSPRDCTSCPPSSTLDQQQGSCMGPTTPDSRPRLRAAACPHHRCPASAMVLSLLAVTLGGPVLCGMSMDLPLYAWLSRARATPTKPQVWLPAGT

In a further data set the test system is Mus musculus. The experiment in a line: Protection against Pseudomonas exotoxin A-induced toxicity in C57BL/6 mouse assessed as survival at 12.5 mg/kg, ip once daily administered 1 hr prior to toxin challenge. It is filed as functional. The following applies: C57BL/6, ip, route intraperitoneal.
In data set [6] the target is Proprotein convertase subtilisin/kexin type 5 (Homo sapiens, UniProt Q92824).
For data set [7], the system named is U-251. The experiment in a line: Inhibition of proprotein convertase-mediated anthrax protective antigen-83 processing in human U251 cells at 20 uM by Western blot. It is filed as cell-based. The note with it: Bacillus anthracis. On the technique in general: A western blot detects proteins with antibodies after separation by electrophoresis.
The target of data set [8] is T2, Proprotein convertase subtilisin/kexin type 6 (Rattus norvegicus, UniProt Q63415).
T2 sequence (Q63415 whole entry): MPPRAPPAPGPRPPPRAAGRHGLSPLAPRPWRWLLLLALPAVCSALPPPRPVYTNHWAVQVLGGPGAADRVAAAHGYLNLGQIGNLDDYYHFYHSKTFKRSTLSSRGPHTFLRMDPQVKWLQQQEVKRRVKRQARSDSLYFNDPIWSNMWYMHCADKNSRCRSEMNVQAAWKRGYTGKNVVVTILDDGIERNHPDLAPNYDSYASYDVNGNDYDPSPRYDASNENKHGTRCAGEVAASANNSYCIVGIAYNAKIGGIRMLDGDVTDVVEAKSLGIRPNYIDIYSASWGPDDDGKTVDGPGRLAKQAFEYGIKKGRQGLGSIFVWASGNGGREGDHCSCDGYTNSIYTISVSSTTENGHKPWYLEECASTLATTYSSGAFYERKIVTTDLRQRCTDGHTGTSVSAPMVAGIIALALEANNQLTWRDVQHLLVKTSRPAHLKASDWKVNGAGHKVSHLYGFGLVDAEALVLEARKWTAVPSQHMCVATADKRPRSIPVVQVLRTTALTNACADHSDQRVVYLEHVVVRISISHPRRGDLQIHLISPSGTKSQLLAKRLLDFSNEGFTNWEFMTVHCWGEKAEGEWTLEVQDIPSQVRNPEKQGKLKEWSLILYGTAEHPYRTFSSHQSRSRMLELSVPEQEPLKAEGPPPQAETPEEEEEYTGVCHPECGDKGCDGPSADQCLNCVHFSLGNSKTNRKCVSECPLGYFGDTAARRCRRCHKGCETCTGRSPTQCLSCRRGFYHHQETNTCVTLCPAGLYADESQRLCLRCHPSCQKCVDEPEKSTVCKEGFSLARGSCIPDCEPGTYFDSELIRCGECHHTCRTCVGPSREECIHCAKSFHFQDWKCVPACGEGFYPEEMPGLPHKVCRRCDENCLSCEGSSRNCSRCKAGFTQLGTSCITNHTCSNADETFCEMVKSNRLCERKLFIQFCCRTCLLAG

Data set [9] deals with T3, Proprotein convertase subtilisin/kexin type 7 (Homo sapiens, UniProt Q16549).
T3 sequence (Q16549 whole entry): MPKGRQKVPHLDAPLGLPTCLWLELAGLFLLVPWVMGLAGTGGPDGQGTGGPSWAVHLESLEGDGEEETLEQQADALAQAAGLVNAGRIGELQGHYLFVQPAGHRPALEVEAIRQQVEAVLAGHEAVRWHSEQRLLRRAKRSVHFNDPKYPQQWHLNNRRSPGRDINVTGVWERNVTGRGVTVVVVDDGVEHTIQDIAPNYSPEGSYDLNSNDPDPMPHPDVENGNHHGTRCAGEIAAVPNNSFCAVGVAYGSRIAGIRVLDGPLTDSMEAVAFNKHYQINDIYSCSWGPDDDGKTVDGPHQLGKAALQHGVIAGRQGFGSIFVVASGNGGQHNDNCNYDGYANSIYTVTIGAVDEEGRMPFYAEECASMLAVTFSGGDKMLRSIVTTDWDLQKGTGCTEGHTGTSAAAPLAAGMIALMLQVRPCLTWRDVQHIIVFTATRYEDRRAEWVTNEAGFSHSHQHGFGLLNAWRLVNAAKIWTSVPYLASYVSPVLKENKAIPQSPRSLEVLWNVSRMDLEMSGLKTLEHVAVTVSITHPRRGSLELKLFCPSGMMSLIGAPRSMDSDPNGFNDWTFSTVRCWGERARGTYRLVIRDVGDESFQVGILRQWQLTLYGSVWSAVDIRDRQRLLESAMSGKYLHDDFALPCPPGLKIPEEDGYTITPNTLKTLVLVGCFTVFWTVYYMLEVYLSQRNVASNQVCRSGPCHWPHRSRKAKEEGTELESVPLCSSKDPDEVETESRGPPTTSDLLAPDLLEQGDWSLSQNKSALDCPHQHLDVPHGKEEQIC

The test system of data set [10] is Bacillus anthracis. The experiment in a line: Protection against Bacillus anthracis Sterne spores infected A/J mouse assessed as survival at 25 mg/kg, sc administered daily after 4 days post infection. It is filed as functional. The note with it: route subcutaneous.

Sequence of Proprotein convertase subtilisin/kexin type 5 (Q92824 whole entry): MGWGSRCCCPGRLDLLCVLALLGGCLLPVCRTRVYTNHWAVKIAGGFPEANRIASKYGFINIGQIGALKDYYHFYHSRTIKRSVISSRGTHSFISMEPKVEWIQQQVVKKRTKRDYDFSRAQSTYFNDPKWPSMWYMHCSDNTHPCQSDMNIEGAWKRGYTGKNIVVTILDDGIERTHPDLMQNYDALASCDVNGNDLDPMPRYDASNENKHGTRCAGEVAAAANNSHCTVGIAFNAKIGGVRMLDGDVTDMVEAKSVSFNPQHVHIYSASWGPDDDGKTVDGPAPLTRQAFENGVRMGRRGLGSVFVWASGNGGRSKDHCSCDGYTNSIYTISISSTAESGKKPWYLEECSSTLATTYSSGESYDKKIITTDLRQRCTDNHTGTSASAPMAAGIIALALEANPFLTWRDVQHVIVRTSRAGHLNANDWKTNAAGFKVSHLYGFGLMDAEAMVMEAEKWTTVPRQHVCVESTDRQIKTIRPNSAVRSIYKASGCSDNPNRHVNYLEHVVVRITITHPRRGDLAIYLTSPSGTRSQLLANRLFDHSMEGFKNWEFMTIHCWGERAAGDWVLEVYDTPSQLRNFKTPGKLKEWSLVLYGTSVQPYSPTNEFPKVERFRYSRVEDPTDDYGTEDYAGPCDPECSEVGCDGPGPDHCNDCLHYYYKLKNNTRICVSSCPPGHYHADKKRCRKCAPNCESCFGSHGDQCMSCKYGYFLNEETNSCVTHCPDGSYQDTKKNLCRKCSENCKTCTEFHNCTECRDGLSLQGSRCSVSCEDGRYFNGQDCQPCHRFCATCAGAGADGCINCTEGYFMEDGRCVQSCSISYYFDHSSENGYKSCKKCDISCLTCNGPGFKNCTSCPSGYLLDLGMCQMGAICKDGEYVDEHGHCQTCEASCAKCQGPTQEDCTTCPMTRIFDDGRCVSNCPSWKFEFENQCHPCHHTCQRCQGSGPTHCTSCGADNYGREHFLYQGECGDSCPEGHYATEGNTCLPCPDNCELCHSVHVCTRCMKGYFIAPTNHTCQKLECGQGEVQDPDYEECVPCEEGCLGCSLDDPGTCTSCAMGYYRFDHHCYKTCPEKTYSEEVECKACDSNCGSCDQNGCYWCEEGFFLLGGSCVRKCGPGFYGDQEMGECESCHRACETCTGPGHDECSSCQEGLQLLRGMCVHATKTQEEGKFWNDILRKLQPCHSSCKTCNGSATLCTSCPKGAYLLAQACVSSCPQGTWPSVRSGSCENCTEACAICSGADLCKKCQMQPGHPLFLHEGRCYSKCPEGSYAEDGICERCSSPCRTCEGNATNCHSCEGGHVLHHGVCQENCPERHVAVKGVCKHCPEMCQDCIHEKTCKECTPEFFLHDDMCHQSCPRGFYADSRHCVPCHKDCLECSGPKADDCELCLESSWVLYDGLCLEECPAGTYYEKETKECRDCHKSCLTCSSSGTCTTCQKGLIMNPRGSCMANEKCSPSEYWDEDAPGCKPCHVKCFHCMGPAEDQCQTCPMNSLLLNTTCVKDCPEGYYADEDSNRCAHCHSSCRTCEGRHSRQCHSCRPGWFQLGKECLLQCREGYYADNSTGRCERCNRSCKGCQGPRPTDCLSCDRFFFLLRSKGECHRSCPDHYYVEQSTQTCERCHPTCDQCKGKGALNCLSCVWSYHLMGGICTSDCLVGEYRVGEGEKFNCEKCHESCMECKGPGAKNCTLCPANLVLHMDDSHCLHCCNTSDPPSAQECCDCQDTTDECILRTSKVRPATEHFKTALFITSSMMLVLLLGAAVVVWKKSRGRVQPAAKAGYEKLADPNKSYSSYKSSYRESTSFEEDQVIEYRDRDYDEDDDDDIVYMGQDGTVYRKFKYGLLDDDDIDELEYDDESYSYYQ
Sequence of Furin (P09958 whole entry): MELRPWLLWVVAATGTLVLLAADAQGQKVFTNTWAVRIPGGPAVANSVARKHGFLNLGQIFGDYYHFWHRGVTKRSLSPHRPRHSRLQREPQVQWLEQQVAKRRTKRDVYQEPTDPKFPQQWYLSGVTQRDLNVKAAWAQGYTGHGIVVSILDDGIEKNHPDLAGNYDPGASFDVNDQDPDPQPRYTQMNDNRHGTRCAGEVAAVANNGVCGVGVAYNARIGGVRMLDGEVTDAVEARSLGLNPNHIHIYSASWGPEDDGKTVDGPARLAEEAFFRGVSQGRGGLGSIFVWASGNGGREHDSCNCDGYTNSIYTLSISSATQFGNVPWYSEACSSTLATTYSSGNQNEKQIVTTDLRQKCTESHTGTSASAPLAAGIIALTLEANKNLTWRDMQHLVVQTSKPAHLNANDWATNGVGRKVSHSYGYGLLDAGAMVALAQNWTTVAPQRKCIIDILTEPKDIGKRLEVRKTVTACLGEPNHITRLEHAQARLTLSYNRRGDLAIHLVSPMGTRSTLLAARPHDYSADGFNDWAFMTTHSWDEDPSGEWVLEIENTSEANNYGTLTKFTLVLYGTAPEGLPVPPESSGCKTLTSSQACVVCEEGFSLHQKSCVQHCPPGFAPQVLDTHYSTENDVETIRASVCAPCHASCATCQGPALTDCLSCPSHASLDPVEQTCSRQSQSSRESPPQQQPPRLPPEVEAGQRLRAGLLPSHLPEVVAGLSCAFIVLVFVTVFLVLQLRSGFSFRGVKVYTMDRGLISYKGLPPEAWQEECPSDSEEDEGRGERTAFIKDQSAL

Take `C[C@H](NC(=O)[C@H](CCCNC(=N)N)NC(=O)[C@@H]1CCCN1C(=O)[C@@H](NC(=O)CCN)[C@@H](C)O)C(=O)N[C@@H](CCCNC(=N)N)C(=O)N[C@@H](CCCNC(=N)N)C(=O)N[C@@H](CCCNC(=N)N)C(=O)N[C@@H](CCCCN)C(=O)N[C@@H](CCCCN)C(=O)N[C@@H](CCCNC(=N)N)C(=O)N[C@H](C(N)=O)[C@@H](C)O` (H-[βAla]TPRARRRKKRT-NH2): the Activity in the data set on Bacillus anthracis [1] worked out at 40%. The Survival in the data set on Bacillus anthracis [2] worked out at 6.63 days.
Take `CNC(=O)[C@H](Cc1c[nH]c2ccccc12)NC(=O)[C@@H](CC(=O)NO)CC(C)C`: in the data set on U-251 [3], the result was Active.
Take H-TPRARRRKKRT-NH2: the Activity result in the data set on RAW264.7 was “Non-toxic”. Moreover, the result with U-251 [4], in the data set with U-251 [3], at Furin and in the data set on U-251 [7] was Active. Further, the inhibitory constant (Ki) in data set [5] was determined as 441 nM; in data set [6], 232 nM; in data set [8], 162 nM; in data set [9], 135 nM. Further, in the data set on Mus musculus, the survival at 12.5 mg/kg stood at 60%.
As for `O=C(O)c1cn(C2CC2)c2cc(N3CCNCC3)c(F)cc2c1=O` [CIPROFLOXACIN], the Survival in the data set with Bacillus anthracis [10] worked out at 6 days.
